Experimental data: PMC6957248 (Bioorganic & medicinal chemistry letters, 2016)

Assays:
[1] = target: T1, human TRPV1 heterologously expressed in Chinese hamster ovary (CHO) cells (Homo sapiens, UniProt Q8NER1); format: cell-based; details: for fold weaker antagonistic potency compared to 1: ratio of Ki(ant) versus compound 1
[2] = target: T1, human TRPV1 heterologously expressed in Chinese hamster ovary (CHO) cells; assay: binding competition assay with [3H]-resiniferatoxin; details: for fold weaker binding affinity compared to 1: ratio of Ki versus compound 1

T1 sequence (Q8NER1 whole entry): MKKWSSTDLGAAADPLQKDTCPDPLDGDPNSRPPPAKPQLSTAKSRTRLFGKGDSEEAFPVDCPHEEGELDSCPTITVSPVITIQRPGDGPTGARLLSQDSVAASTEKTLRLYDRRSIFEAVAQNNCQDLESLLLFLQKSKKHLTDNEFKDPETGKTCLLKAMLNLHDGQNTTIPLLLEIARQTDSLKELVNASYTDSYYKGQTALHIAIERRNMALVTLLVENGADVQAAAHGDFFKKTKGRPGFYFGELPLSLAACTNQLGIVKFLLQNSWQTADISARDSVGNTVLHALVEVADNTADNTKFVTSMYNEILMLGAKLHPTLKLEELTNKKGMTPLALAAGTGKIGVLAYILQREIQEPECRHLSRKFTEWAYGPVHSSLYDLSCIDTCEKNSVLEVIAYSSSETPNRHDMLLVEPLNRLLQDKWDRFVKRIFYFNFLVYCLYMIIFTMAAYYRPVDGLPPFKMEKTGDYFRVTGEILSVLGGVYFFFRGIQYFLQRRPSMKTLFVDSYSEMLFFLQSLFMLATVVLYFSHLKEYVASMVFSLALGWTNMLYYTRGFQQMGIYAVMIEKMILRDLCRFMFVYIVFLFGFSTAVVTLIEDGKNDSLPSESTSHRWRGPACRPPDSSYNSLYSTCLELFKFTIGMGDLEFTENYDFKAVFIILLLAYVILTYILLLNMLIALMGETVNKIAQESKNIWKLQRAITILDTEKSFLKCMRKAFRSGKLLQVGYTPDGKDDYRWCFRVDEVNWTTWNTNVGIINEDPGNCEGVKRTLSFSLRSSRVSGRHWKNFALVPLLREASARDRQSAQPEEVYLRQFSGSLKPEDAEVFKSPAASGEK

| Compound | fold weaker antagonistic potency compared to 1 [1] | fold weaker binding affinity compared to 1 [2] | also measured |
| --- | --- | --- | --- |
| CC1CCN(c2nc(C(F)(F)F)ccc2CCNC(=O)C(C)c2ccc(NS(C)(=O)=O)c(F)c2)CC1 (stereo not shown) [Compound 11] | 43 fold | 7 fold |  |
| CC1CCN(c2nc(C(F)(F)F)ccc2CNC(=O)C(C)c2ccc(CNS(C)(=O)=O)c(F)c2)CC1 (stereo not shown) [Compound 16] | 12 fold | 29 fold |  |
| CC1CCN(c2nc(C(F)(F)F)ccc2CNC(=O)Nc2ccc(NS(C)(=O)=O)c(F)c2)CC1 [Compound 21] | 67 fold | 11 fold |  |
| CC1CCN(c2nc(C(F)(F)F)ccc2CCNC(=O)Nc2ccc(NS(C)(=O)=O)c(F)c2)CC1 [Compound 22] |  |  | character of antagonism ([1]; capsaicin stimulated 45Ca2+ uptake): partial antagonist |
| CC1CCN(c2nc(C(F)(F)F)ccc2CNC(=O)Nc2ccc(CNS(C)(=O)=O)c(F)c2)CC1 [Compound 27] |  |  | fold increase in antagonistic potency compared to 21 ([1]; ratio of Ki(ant) versus compound 21): approximately 12 fold; fold increase in binding affinity compared to 21 ([2]; ratio of Ki versus compound 21): approximately 12 fold |
| Cc1cccc(N(C(=O)NCc2ccc(C(F)(F)F)nc2N2CCC(C)CC2)c2ccc(NS(C)(=O)=O)c(F)c2)c1 [Compound 42] |  |  | extent of antagonism, 15 min pre-incubation ([1]; cells incubated with compound 15 min before challenge with capsaicin): full antagonism |
